# Laboratory results as given in patent US10130571B2, “Dentifrice Comprising Zinc-Amino Acid Complex and Phosphates” (Colgate-Palmolive Company, priority 2014, dated 2018).
# Test system: biofilms
# Assay: Biofilm formation on HAP discs pre-treated with a simple solution of lysine
# Type: cell-based
# Conditions: after 48 h, visual
# Source text: We pre-treated HAP discs with a simple solution of lysine to see how an overabundance of free lysine would affect biofilm formation.
structure (smiles),measurement,value
NCCCC[C@H](N)C(=O)O [lysine],appearance of biofilms after lysine pre-treatment,visually were overgrown
